Values after ≈ are worked out from the molar mass of the structure shown.

What all share (format): functional, organism-based
Test [1] concerns Mycolicibacterium smegmatis. Description: Antimycobacterial activity against Mycobacterium smegmatis grown in Luria-Bertani broth medium assessed as growth inhibition in mid-logarithmic phase by spectrophotometry.
The subject of test [2] is Mycolicibacterium smegmatis. Description: Antimycobacterial activity against Mycobacterium smegmatis grown in nitrogen -limited broth medium assessed as growth inhibition in mid-logarithmic phase by GFP-based fluorescence assay.
Test [3] deals with Mycolicibacterium smegmatis. The test can be described thus: Antimycobacterial activity against Mycobacterium smegmatis grown in Luria-Bertani broth medium assessed as growth inhibition in mid-logarithmic phase by GFP-based fluorescence assay.
The subject of test [4] is Mycolicibacterium smegmatis. Description: Antimycobacterial activity against Mycobacterium smegmatis grown in carbon-limited broth medium assessed as growth inhibition in mid-logarithmic phase by spectrophotometry.
Test [5] concerns Mycolicibacterium smegmatis. Description: Antimycobacterial activity against Mycobacterium smegmatis grown in nitrogen -limited broth medium assessed as growth inhibition in mid-logarithmic phase by spectrophotometry.
For test [6], the system named is Mycolicibacterium smegmatis. Description: Antimycobacterial activity against Mycobacterium smegmatis grown in carbon-limited broth medium assessed as growth inhibition in mid-logarithmic phase by GFP-based fluorescence assay.

As to `O=S1(=O)N(CCN2CC=C(c3c[nH]c4cc(F)ccc34)CC2)c2cccc3c2N1CCC3`, the half-inhibitory concentration (IC50) in test [1] (Mycolicibacterium smegmatis) came out at 25.1 µM; in test [2] (Mycolicibacterium smegmatis), 22.3 µM; in test [3] (Mycolicibacterium smegmatis), 25.1 µM; in test [4] (Mycolicibacterium smegmatis) it was 25.3 µM; in test [5] (Mycolicibacterium smegmatis), 22.3 µM; in test [6] (Mycolicibacterium smegmatis) it was 25.3 µM. Moreover, the minimum inhibitory concentration (MIC) came to 50 µM (≈ 22.6 µg/mL) in test [1] (Mycolicibacterium smegmatis); 50 µM (≈ 22.6 µg/mL) in test [2] (Mycolicibacterium smegmatis); 50 µM (≈ 22.6 µg/mL) in test [3] (Mycolicibacterium smegmatis); 25 µM (≈ 11.3 µg/mL) in test [4] (Mycolicibacterium smegmatis); 50 µM (≈ 22.6 µg/mL) in test [5] (Mycolicibacterium smegmatis); 25 µM (≈ 11.3 µg/mL) in test [6] (Mycolicibacterium smegmatis).

In the case of `Cc1cc(N)c2ccccc2[n+]1CCCCCCCCCCCCCC[n+]1c(C)cc(N)c2ccccc21`, the IC50 in test [1] (Mycolicibacterium smegmatis) was 3.95 µM; in test [2] (Mycolicibacterium smegmatis), 1.74 µM; in test [3] (Mycolicibacterium smegmatis) it was 3.95 µM; in test [4] (Mycolicibacterium smegmatis) it was 2.73 µM; in test [5] (Mycolicibacterium smegmatis), 1.74 µM; in test [6] (Mycolicibacterium smegmatis), 2.73 µM. In addition, the MIC turned out to be 6.25 µM in test [1] (Mycolicibacterium smegmatis); 3.12 µM in test [2] (Mycolicibacterium smegmatis); 6.25 µM in test [3] (Mycolicibacterium smegmatis); 6.25 µM in test [4] (Mycolicibacterium smegmatis); 3.12 µM in test [5] (Mycolicibacterium smegmatis); 6.25 µM in test [6] (Mycolicibacterium smegmatis).

`CN(C)C(CCCCC[N+](C)(C)CCCN1C(=O)c2cccc3cccc(c23)C1=O)CCCN1C(=O)c2cccc3cccc(c23)C1=O` (centres undefined): the concentration for half-maximal inhibition (IC50) came to 8.15 µM in test [1] (Mycolicibacterium smegmatis); 6 µM in test [2] (Mycolicibacterium smegmatis); 8.15 µM in test [3] (Mycolicibacterium smegmatis); 11.7 µM in test [4] (Mycolicibacterium smegmatis); 6 µM in test [5] (Mycolicibacterium smegmatis); 11.7 µM in test [6] (Mycolicibacterium smegmatis). In addition, the minimum inhibitory concentration (MIC) was 50 µM in test [1] (Mycolicibacterium smegmatis); 25 µM in test [2] (Mycolicibacterium smegmatis); 50 µM in test [3] (Mycolicibacterium smegmatis); 50 µM in test [4] (Mycolicibacterium smegmatis); 25 µM in test [5] (Mycolicibacterium smegmatis); 50 µM in test [6] (Mycolicibacterium smegmatis).

In the case of 4-CHLOROMERCURIBENZOIC ACID, the IC50 was 7.07 µM in test [1]; 6.33 µM in test [2]; 7.07 µM in test [3]; 7.65 µM in test [4]; 6.33 µM in test [5]; 7.65 µM in test [6].

In the case of 4-[sequence] ACID, the MIC in test [1] was determined as 25 µM; in test [2], 12.5 µM; in test [3], 25 µM; in test [4], 6.25 µM; in test [5] it was 12.5 µM; in test [6], 6.25 µM.

Take `Cc1c(C)c2c(c(C)c1O)CCC(C)(CN1CCN(c3cc(N4CCCC4)nc(N4CCCC4)n3)CC1)O2` (single isomer, unassigned): the IC50 is greater than 50 µM in test [1] (Mycolicibacterium smegmatis); 34.2 µM in test [2] (Mycolicibacterium smegmatis); greater than 50 µM in test [3] (Mycolicibacterium smegmatis); greater than 50 µM in test [4] (Mycolicibacterium smegmatis); 34.2 µM in test [5] (Mycolicibacterium smegmatis); greater than 50 µM in test [6] (Mycolicibacterium smegmatis). Besides, the MIC in test [1] (Mycolicibacterium smegmatis), in test [2] (Mycolicibacterium smegmatis), in test [3] (Mycolicibacterium smegmatis), in test [4] (Mycolicibacterium smegmatis), in test [5] (Mycolicibacterium smegmatis) and in test [6] (Mycolicibacterium smegmatis) was 50 µM (≈ 26 µg/mL) in each case.

As to `CC(C)(C)c1ccc(S(=O)(=O)/C=C/C#N)cc1` [BAY-11-7085], the IC50 in test [1] (Mycolicibacterium smegmatis) amounted to 30.6 µM; in test [2] (Mycolicibacterium smegmatis), 6.22 µM; in test [3] (Mycolicibacterium smegmatis) it was 30.6 µM; in test [4] (Mycolicibacterium smegmatis) it was 2.58 µM; in test [5] (Mycolicibacterium smegmatis) it was 6.22 µM; in test [6] (Mycolicibacterium smegmatis), 2.58 µM. The minimum inhibitory concentration (MIC) in test [1] (Mycolicibacterium smegmatis) was found to be 50 µM (≈ 12.5 µg/mL); in test [2] (Mycolicibacterium smegmatis) it was 12.5 µM (≈ 3.12 µg/mL); in test [3] (Mycolicibacterium smegmatis), 50 µM (≈ 12.5 µg/mL); in test [4] (Mycolicibacterium smegmatis), 6.25 µM (≈ 1.56 µg/mL); in test [5] (Mycolicibacterium smegmatis) it was 12.5 µM (≈ 3.12 µg/mL); in test [6] (Mycolicibacterium smegmatis), 6.25 µM (≈ 1.56 µg/mL).

Take `CNc1ccc2oc(C[C@H]3O[C@@]4(CC[C@H]3C)O[C@H]([C@H](C)C(=O)c3ccc[nH]3)[C@H](C)C[C@H]4C)nc2c1C(=O)O` [CALCIMYCIN]: the half-inhibitory concentration (IC50) is 1.04 µM in test [1] (Mycolicibacterium smegmatis); 3.43 µM in test [2] (Mycolicibacterium smegmatis); 1.04 µM in test [3] (Mycolicibacterium smegmatis); 5.21 µM in test [4] (Mycolicibacterium smegmatis); 3.43 µM in test [5] (Mycolicibacterium smegmatis); 5.21 µM in test [6] (Mycolicibacterium smegmatis). Moreover, the minimum inhibitory concentration (MIC) stood at 3.12 µM (≈ 1.64 µg/mL) in test [1] (Mycolicibacterium smegmatis); 12.5 µM (≈ 6.55 µg/mL) in test [2] (Mycolicibacterium smegmatis); 3.12 µM (≈ 1.64 µg/mL) in test [3] (Mycolicibacterium smegmatis); 12.5 µM (≈ 6.55 µg/mL) in test [4] (Mycolicibacterium smegmatis); 12.5 µM (≈ 6.55 µg/mL) in test [5] (Mycolicibacterium smegmatis); 12.5 µM (≈ 6.55 µg/mL) in test [6] (Mycolicibacterium smegmatis).

As for `Clc1ccc(C(c2ccc(Cl)cc2)[n+]2ccn(CC(OCc3ccc(Cl)cc3Cl)c3ccc(Cl)cc3Cl)c2)cc1` (centres undefined) [CALMIDAZOLIUM CHLORIDE], the IC50 came out at 13.2 µM in test [1] (Mycolicibacterium smegmatis); 7.02 µM in test [2] (Mycolicibacterium smegmatis); 13.2 µM in test [3] (Mycolicibacterium smegmatis); 13.8 µM in test [4] (Mycolicibacterium smegmatis); 7.02 µM in test [5] (Mycolicibacterium smegmatis); 13.8 µM in test [6] (Mycolicibacterium smegmatis). The MIC was 12.5 µM in test [1] (Mycolicibacterium smegmatis); 12.5 µM in test [2] (Mycolicibacterium smegmatis); 12.5 µM in test [3] (Mycolicibacterium smegmatis); 50 µM in test [4] (Mycolicibacterium smegmatis); 12.5 µM in test [5] (Mycolicibacterium smegmatis); 50 µM in test [6] (Mycolicibacterium smegmatis).

As for `Clc1ccccc1C(c1ccccc1)(c1ccccc1)n1ccnc1` [CLOTRIMAZOLE], the IC50 amounted to 6.54 µM in test [1] (Mycolicibacterium smegmatis); 12.2 µM in test [2] (Mycolicibacterium smegmatis); 6.54 µM in test [3] (Mycolicibacterium smegmatis); 18.2 µM in test [4] (Mycolicibacterium smegmatis); 12.2 µM in test [5] (Mycolicibacterium smegmatis); 18.2 µM in test [6] (Mycolicibacterium smegmatis). The MIC in test [1] (Mycolicibacterium smegmatis) was determined as 12.5 µM (≈ 4.31 µg/mL); in test [2] (Mycolicibacterium smegmatis) it was 50 µM (≈ 17.2 µg/mL); in test [3] (Mycolicibacterium smegmatis), 12.5 µM (≈ 4.31 µg/mL); in test [4] (Mycolicibacterium smegmatis), 50 µM (≈ 17.2 µg/mL); in test [5] (Mycolicibacterium smegmatis), 50 µM (≈ 17.2 µg/mL); in test [6] (Mycolicibacterium smegmatis), 50 µM (≈ 17.2 µg/mL).

Turning to `CN(C)[C@@H]1C(O)=C(C(N)=O)C(=O)[C@@]2(O)C(O)=C3C(=O)c4c(O)ccc(Cl)c4[C@@H](O)[C@H]3C[C@@H]12` [DEMECLOCYCLINE], the concentration for half-maximal inhibition (IC50) in test [1] (Mycolicibacterium smegmatis) was found to be 1.88 µM; in test [2] (Mycolicibacterium smegmatis) it was 4.4 µM; in test [3] (Mycolicibacterium smegmatis), 1.88 µM; in test [4] (Mycolicibacterium smegmatis), 5.92 µM; in test [5] (Mycolicibacterium smegmatis), 4.4 µM; in test [6] (Mycolicibacterium smegmatis), 5.92 µM. Moreover, the minimal inhibitory concentration (MIC) in test [1] (Mycolicibacterium smegmatis) was found to be 3.12 µM (≈ 1.45 µg/mL); in test [2] (Mycolicibacterium smegmatis), 6.25 µM (≈ 2.91 µg/mL); in test [3] (Mycolicibacterium smegmatis) it was 3.12 µM (≈ 1.45 µg/mL); in test [4] (Mycolicibacterium smegmatis), 6.25 µM (≈ 2.91 µg/mL); in test [5] (Mycolicibacterium smegmatis), 6.25 µM (≈ 2.91 µg/mL); in test [6] (Mycolicibacterium smegmatis), 6.25 µM (≈ 2.91 µg/mL).

In the case of `c1ccc2c(c1)[I+]c1ccccc1-2` [DIPHENYLENEIODONIUM], the 50% inhibitory concentration (IC50) in test [1] (Mycolicibacterium smegmatis) is 6.77 µM; in test [2] (Mycolicibacterium smegmatis), 1.63 µM; in test [3] (Mycolicibacterium smegmatis) it was 6.77 µM; in test [4] (Mycolicibacterium smegmatis) it was 8.53 µM; in test [5] (Mycolicibacterium smegmatis) it was 1.63 µM; in test [6] (Mycolicibacterium smegmatis), 8.53 µM. Moreover, the minimal inhibitory concentration (MIC) in test [1] (Mycolicibacterium smegmatis) worked out at 6.25 µM; in test [2] (Mycolicibacterium smegmatis), 3.12 µM; in test [3] (Mycolicibacterium smegmatis) it was 6.25 µM; in test [4] (Mycolicibacterium smegmatis), 3.12 µM; in test [5] (Mycolicibacterium smegmatis), 3.12 µM; in test [6] (Mycolicibacterium smegmatis) it was 3.12 µM.

On to `C[C@H]1c2cccc(O)c2C(=O)C2=C(O)[C@]3(O)C(=O)C(C(N)=O)=C(O)[C@@H](N(C)C)[C@@H]3[C@@H](O)[C@@H]21` [DOXYCYCLINE], for which the half-maximal inhibitory concentration (IC50) in test [1] (Mycolicibacterium smegmatis) stood at 0.76 µM; in test [2] (Mycolicibacterium smegmatis), 1.95 µM; in test [3] (Mycolicibacterium smegmatis) it was 0.76 µM; in test [4] (Mycolicibacterium smegmatis) it was 2.98 µM; in test [5] (Mycolicibacterium smegmatis), 1.95 µM; in test [6] (Mycolicibacterium smegmatis), 2.98 µM. The minimum inhibitory concentration (MIC) in test [1] (Mycolicibacterium smegmatis) came out at 1.56 µM (≈ 0.693 µg/mL); in test [2] (Mycolicibacterium smegmatis), 3.12 µM (≈ 1.39 µg/mL); in test [3] (Mycolicibacterium smegmatis), 1.56 µM (≈ 0.693 µg/mL); in test [4] (Mycolicibacterium smegmatis), 3.12 µM (≈ 1.39 µg/mL); in test [5] (Mycolicibacterium smegmatis), 3.12 µM (≈ 1.39 µg/mL); in test [6] (Mycolicibacterium smegmatis), 3.12 µM (≈ 1.39 µg/mL).
